Test results taken from PubChem BioAssay (NCI).
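Cultured in 96-well plates, cells were exposed to test compound for 48 hours across five concentrations. TGI: concentration producing complete growth inhibition.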

Legend:
Assay in all cases: NCI tumour cell line growth inhibition, 48 h
CAKI-1 renal = system: CAKI-1 renal
CCRF-CEM leukemia = system: CCRF-CEM leukemia
COLO 205 colon = system: COLO 205 colon
DU-145 prostate = system: DU-145 prostate
EKVX NSCLC = system: EKVX NSCLC
HS 578T breast = system: HS 578T breast
HT29 colon = system: HT29 colon
KM12 colon = system: KM12 colon
LOX IMVI melanoma = system: LOX IMVI melanoma
MDA-MB-435 = system: MDA-MB-435
MOLT-4 leukemia = system: MOLT-4 leukemia
OVCAR-4 ovarian = system: OVCAR-4 ovarian
PC-3 prostate = system: PC-3 prostate
SK-MEL-28 melanoma = system: SK-MEL-28 melanoma
SK-MEL-5 melanoma = system: SK-MEL-5 melanoma
SNB-19 CNS = system: SNB-19 CNS
T-47D breast = system: T-47D breast
U251 CNS = system: U251 CNS
NCI-H522 lung = system: NCI-H522 lung

Structure (SMILES) | TGI (CAKI-1 renal) [µM] | TGI (CCRF-CEM leukemia) [µM] | TGI (COLO 205 colon) [µM] | TGI (DU-145 prostate) [µM] | TGI (EKVX NSCLC) [µM] | TGI (HS 578T breast) [µM] | TGI (HT29 colon) [µM] | TGI (KM12 colon) [µM] | TGI (LOX IMVI melanoma) [µM] | TGI (MDA-MB-435) [µM] | TGI (MOLT-4 leukemia) [µM] | TGI (OVCAR-4 ovarian) [µM] | TGI (PC-3 prostate) [µM] | TGI (SK-MEL-28 melanoma) [µM] | TGI (SK-MEL-5 melanoma) [µM] | TGI (SNB-19 CNS) [µM] | TGI (T-47D breast) [µM] | TGI (U251 CNS) [µM] | TGI (NCI-H522 lung) [µM]
Cc1nn(C(=O)c2ccncc2)c2c1C(c1ccc(Cl)cc1)SC(N)=N2 (centres undefined) | > 10 | > 10 | > 10 | > 10 | > 10 | > 10 | > 10 | > 10 | > 10 | > 10 | > 10 | > 10 | > 10 | > 10 | > 10 | > 10 | > 10 |  | 
COc1ccc(C(=O)/C=C/c2ccc(OCCSCCCCCCCCCCSCCOc3ccc(/C=C/C(=O)c4ccc(OC)cc4)cc3)cc2)cc1 | > 100 | > 100 | > 100 | > 100 | > 100 | > 100 | > 100 | > 100 |  | > 100 | > 100 | > 100 | > 100 | > 100 | > 100 | > 100 | > 100 | > 100 | 
C=C1CCC2CC1[C@@H](C(=O)c1c[nH]c3ccccc13)NC2(C)C (some centres undefined) | > 37.5 | > 37.5 | > 37.5 | > 37.5 | > 37.5 | > 37.5 | > 37.5 | > 37.5 | > 37.5 | > 37.5 | > 37.5 | > 37.5 | > 37.5 | > 37.5 | > 37.5 |  | > 37.5 | > 37.5 | > 37.5
O=C1c2cc3c(cc2CC12Cc1cc4c(cc1C2=O)CCC4)CCC3 | > 100 | > 100 | > 100 | > 100 | > 100 | > 100 | > 100 | > 100 | > 100 | > 100 | > 100 |  | > 100 | > 100 | > 100 | > 100 | > 100 | > 100 | > 100
CCO[C@@H]1CCC(S(=O)c2ccc(C)cc2)=CO1 (some centres undefined) | > 100 |  | > 100 | > 100 | > 100 | > 100 | > 100 | > 100 | > 100 | > 100 | > 100 | > 100 | > 100 | > 100 | > 100 | > 100 | > 100 | > 100 | > 100
CSc1nc(-c2ccc(C)cc2)c(C#N)c(=O)[nH]1 | > 100 | > 100 | > 100 | > 100 | > 100 | > 100 | > 100 | > 100 |  | > 100 | > 100 | > 100 | > 100 | > 100 | > 100 | > 100 | > 100 | > 100 | > 100
COC(=O)C12OC(C)(C(CC(=O)OC(C)(C)C)C1=O)C1C(=O)N(c3ccccc3)C(=O)C12 (centres undefined) | > 100 | > 100 | > 100 | > 100 |  | > 100 | > 100 | > 100 | > 100 | > 100 | > 100 | > 100 | > 100 | > 100 | > 100 | > 100 | > 100 | > 100 | > 100
N#CCCSC1SC(=C2SC3=C(SCCS3)S2)SC1SCCC#N (centres undefined) | > 100 | > 100 | > 100 | > 100 | > 100 | > 100 | > 100 |  | > 100 | > 100 | > 100 | > 100 | > 100 | > 100 | > 100 | > 100 | > 100 | > 100 | > 100
COc1ccc(Cc2c(N)[nH]c(=O)n(C)c2=O)cc1 | > 100 |  | > 100 |  | > 100 | > 100 | > 100 | > 100 | > 100 | > 100 |  | > 100 | > 100 | > 100 | > 100 | > 100 | > 100 | > 100 | > 100
CC1=C(O)C(=O)C[C@]2(C)[C@H]3CC=C4[C@@H]5CC(C)(C)CC[C@@H]5C(=O)[C@H](O)[C@@]4(C)[C@]3(C)CC[C@@H]12 | > 50 | > 50 | > 50 | > 50 | > 50 | > 50 | > 50 | > 50 |  | > 50 | > 50 | > 50 | > 50 | > 50 | > 50 | > 50 | > 50 | > 50 | > 50
Cc1cnc(/N=c2\sc(C)cn2-c2ncc(C)s2)s1 |  | > 100 | > 100 | > 100 | > 100 | > 100 | > 100 | > 100 | > 100 | > 100 | > 100 | > 100 | > 100 | > 100 | > 100 | > 100 | > 100 | > 100 | > 100
O=C(O)CCC(NC(=O)c1ccc(Nc2cnc3ccc(C(F)(F)F)cc3n2)cc1)C(=O)O (centres undefined) | > 100 | > 100 | > 100 | > 100 | > 100 | > 100 | > 100 | > 100 | > 100 | > 100 | > 100 | > 100 | > 100 | > 100 | > 100 | > 100 | > 100 | > 100 | 
C=C(C(=O)O)C1CCC(CC/C=C(\C)CC/C=C(\C)CCC=C(C)C)CO1 (centres undefined) | > 100 | > 100 | 27.4 | 42.2 | 34.1 | > 100 | 29.3 | 28.4 | 24.6 | 53.7 |  | > 100 | 79.1 | 29.5 | 24.9 | 29.1 | > 100 | 78.6 | 48.6
O=C1CCCCC1=C(I)I |  | 73.3 | 28.8 | 34.1 | 4.1 | > 100 |  | 28.8 |  | 46.8 | 58.3 | 24.5 | 30.9 | 31.8 | 33 | 24.9 | 28.7 | 30.2 | 
COC(=O)C1CC=C(SC(=O)c2ccccc2)N1C(=O)c1ccccc1 (centres undefined) | > 100 |  | > 100 | > 100 | > 100 | > 100 | > 100 | > 100 |  | > 100 | > 100 | > 100 | > 100 | > 100 | > 100 | > 100 | > 100 | > 100 | > 100
C#CCOCn1ccc(=O)[nH]c1=O | > 100 | > 100 | > 100 | > 100 | > 100 | > 100 | > 100 | > 100 | > 100 | > 100 | > 100 | > 100 | > 100 | > 100 | > 100 | > 100 | > 100 | > 100 | 
CC(O)(/C=C/c1ccccc1)P(=O)(O)c1ccccc1 (centres undefined) | > 100 |  | > 100 | > 100 | > 100 | > 100 | > 100 | > 100 | > 100 | > 100 |  | > 100 | > 100 | > 100 | > 100 | > 100 | > 100 | > 100 | > 100
C/C(=N\NC(=S)NC1CCCC1)c1ccccn1 | > 100 |  | 26.8 | > 43 | > 100 | > 100 | > 100 | > 83.2 | 17.8 | > 75.6 |  | > 100 | > 100 | > 100 | 13.2 | > 100 | > 23.9 | > 100 | 42.4
CC(=O)O[C@@H]1[C@H]2[C@@H](OC(=O)c3ccccc3)[C@@H](C)C[C@]2(O)[C@H](OC(C)=O)[C@@]2(C)[C@@H]3CC(C)(C)C(=O)[C@]3(OC(C)=O)C[C@@]12C | > 25 | > 25 | > 25 | > 25 | > 25 | > 25 |  | > 25 | > 25 | > 25 | > 25 | > 25 | > 25 |  | > 25 | > 25 | > 25 | > 25 | > 25
Cc1ccccc1NC(=O)C(=O)CC(=O)c1sc(Nc2ccccc2[N+](=O)[O-])nc1C | > 100 |  | > 100 | > 100 | > 100 | > 100 | > 100 | > 100 | > 100 | > 100 | > 100 | 52.9 | > 100 | 82.8 | > 100 | > 100 | 68.1 | > 100 | 86.1
